One assay concerns P388 leukemia. It counts as in vivo, CDF1 female mice. Particulars: for Effect MST % T/C / MST (median survival time): 3X, Days 1,4,7; for host survival in the P388 leukemia screening test (in words): mouse, in vivo. An excerpt:
Details of the methods used in this procedure have been described in Cancer Chemother. Rep. 3: 1-87 (Part 3), 1972.
Host CDF1 .female. mice
Treatment 3X, Days 1,4,7
Evaluation MST = median survival time
Effect % T/C = (MST treated/MST control) × 100
Criteria % T/C ≥ 125 considered significant antitumor activity.

For a further assay, the system named is Enterobacter cloacae. As to the kind of experiment: antibacterial activity, serial two-fold agar dilution method. Particulars: Strain No. 9659. It is filed as cell-based. On the procedure: (§1) The antibacterial activities of albacarcin V and M were determined by a serial two-fold agar dilution method.
Another assay has as its system Proteus vulgaris. The description is as above. It is filed as cell-based. The settings on record: Strain No. 21559. On the procedure:
as §1

In the next assay the test system is Klebsiella pneumoniae. The description is as above. It is filed as cell-based. The settings on record: Strain No. 15130. On the procedure:
as §1

Another assay deals with Escherichia coli. Described as above. It counts as cell-based. On the procedure: as §1
The test system of the next assay is Staphylococcus aureus. The description is as above. It counts as cell-based. The settings on record: for MIC: Staphylococcus aureus, read-out: Minimum Inhibitory Concentration. On the procedure:
as §1

Another assay concerns Pseudomonas aeruginosa. The assay is described as above. It counts as cell-based. Particulars: Strain No. 9843A. On the procedure:
as §1

Another assay relates to Proteus mirabilis. The assay is described as above. It counts as cell-based. Particulars: Strain No. 9900. The method, then: as §1
Another assay concerns Serratia marcescens. Described as above. It is filed as cell-based. Particulars: Strain No. 20019. On the procedure:
as §1

Another assay deals with Streptococcus pneumoniae. The assay is described as above. Particulars: Strain No. 9585. It counts as cell-based. The method, then:
as §1

The subject of the next assay is Streptococcus pyogenes. The description is as above. Particulars: Strain No. 9604. It is filed as cell-based. On the procedure:
as §1

The subject of another assay is gram-negative bacteria. As to the kind of experiment: antibacterial activity, agar dilution, gram-negative summary. It is filed as cell-based. Particulars: at the highest dose tested. On the procedure: as §1
In general terms: In agar dilution the substance is mixed into plates at graded concentrations.

For the next assay, the system named is gram-positive bacteria. As to the kind of experiment: antibacterial activity, agar dilution, gram-positive summary. It is filed as cell-based. Particulars: summary of Table IV. The method, then: as §1
Assay [1] deals with Streptomyces albaduncus strain C38291. As to the kind of experiment: growth inhibition of producing strain by antibiotics. It counts as cell-based. An excerpt: The growth of strain C38291 is inhibited by streptomycin or tetracycline, but not by benzylpenicillin, ampicillin or erythromycin. The sodium chloride tolerance is seen at 8% or less, but not at 10% or more. Melanin is not produced from L-3,4-dihydroxy phenylalanine (L-DOPA). Among eleven diagnostic sugars described in Bergey's Manual, 8th ed. (1974), only raffinose is not utilized by strain C38291. The physiological characteristics and utilization of carbohydrates are shown in Tables II and III, respectively.

The conditions of assay [2]: reported in Antibiotiki 22: 963-967 at 967, 1977; cited from earlier work.

≈ marks a conversion by molar mass, not a printed value. Like-named read-outs stand apart in the source and are kept apart here.

In the case of `COc1cc2c(oc(=O)c3cc(C)cc(OC)c32)c2c(C3OC(C)C(O)C(C)(O)C3O)ccc(O)c12` (stereo not drawn) [Albacarcin M, albacarcin M], the “Effect MST % T/C” value came to 113 % T/C with P388 leukemia (8 mg/kg/inj); 119 % T/C in the assay with P388 leukemia (16 mg/kg/inj); 150 % T/C in the assay with P388 leukemia (32 mg/kg/inj); 150 % T/C in the assay on P388 leukemia (64 mg/kg/inj); 175 % T/C in the assay with P388 leukemia (128 mg/kg/inj); 200 % T/C in the assay with P388 leukemia (256 mg/kg/inj). For the same molecule, the “MST (median survival time)” value in the assay with P388 leukemia (8 mg/kg/inj) worked out at 9.0 days; with P388 leukemia (16 mg/kg/inj), 9.5 days; with P388 leukemia (32 mg/kg/inj), 12.0 days; in the assay on P388 leukemia (64 mg/kg/inj), 12.0 days; in the assay on P388 leukemia (128 mg/kg/inj) it was 14.0 days; in the assay with P388 leukemia (256 mg/kg/inj), 16.0 days. The “host survival in the P388 leukemia screening test (in words)” value in the assay on P388 leukemia is “significantly prolong host survival”. Moreover, the MIC in the assay with Enterobacter cloacae (Enterobacter cloacae, read-out: Minimum Inhibitory Concentration) was over 50 µg/mL; in the assay on Proteus vulgaris (Proteus vulgaris, read-out: Minimum Inhibitory Concentration), over 50 µg/mL; in the assay with Klebsiella pneumoniae (Klebsiella pneumoniae, read-out: Minimum Inhibitory Concentration), over 50 µg/mL; with Escherichia coli (Escherichia coli, Strain No. 15119, read-out: Minimum Inhibitory Concentration), over 50 µg/mL; with Staphylococcus aureus (Strain No. 9497), 0.8 µg/mL (≈ 1.61 µM); in the assay with Staphylococcus aureus (Strain No. 9537), 3.2 µg/mL (≈ 6.44 µM). Also, the MIC with Staphylococcus aureus (Strain No. 9606) is 3.2 µg/mL (≈ 6.44 µM); in the assay on Staphylococcus aureus (Strain No. 20688), 1.6 µg/mL (≈ 3.22 µM); with Pseudomonas aeruginosa (Pseudomonas aeruginosa, read-out: Minimum Inhibitory Concentration) it was over 50 µg/mL; in the assay on Proteus mirabilis (Proteus mirabilis, read-out: Minimum Inhibitory Concentration), over 50 µg/mL; in the assay with Serratia marcescens (Serratia marcescens, read-out: Minimum Inhibitory Concentration), over 50 µg/mL; in the assay on Streptococcus pneumoniae (Streptococcus pneumoniae, read-out: Minimum Inhibitory Concentration), 0.4 µg/mL (≈ 0.806 µM). Also, in the assay on Streptococcus pyogenes (Streptococcus pyogenes, read-out: Minimum Inhibitory Concentration), the MIC was found to be 1.6 µg/mL (≈ 3.22 µM). The “Minimum Inhibitory Concentration” value in the assay on Escherichia coli (Strain No. 20341-1) is over 50 µg/mL. The “gram-negative activity (in words)” value with gram-negative bacteria was “Little or no gram-negative activity”. Also, in the assay with gram-positive bacteria, the “gram-positive antibacterial activity (in words)” value was “moderate gram-positive antibacterial activity”.
As to `CC[C@H]1OC(=O)[C@H](C)[C@@H](O[C@H]2C[C@@](C)(OC)[C@@H](O)[C@H](C)O2)[C@H](C)[C@@H](O[C@@H]2O[C@H](C)C[C@H](N(C)C)[C@H]2O)[C@](C)(O)C[C@@H](C)C(=O)[C@H](C)[C@@H](O)[C@]1(C)O` [erythromycin], in [1], the “growth of strain C38291 inhibited or not” value is listed as “not”.
On the same count and under the same terms, in the case of `CC1(C)S[C@@H]2[C@H](NC(=O)[C@H](N)c3ccccc3)C(=O)N2[C@H]1C(=O)O` [ampicillin] it was “not”.
As for virenomycin, in [2], the “antitumor activity (in words)” value is “comparatively low antitumor activity and narrow spectrum”.
Regarding `CC1(C)S[C@@H]2[C@H](NC(=O)Cc3ccccc3)C(=O)N2[C@H]1C(=O)O` [benzylpenicillin], in assay [1], the “growth of strain C38291 inhibited or not” value is listed as “not”.
Regarding `CN(C)[C@@H]1C(=O)C(C(N)=O)=C(O)[C@@]2(O)C(=O)C3=C(O)c4c(O)cccc4[C@@](C)(O)[C@H]3C[C@@H]12` [tetracycline], the “growth of strain C38291 inhibited or not” value in [1] was “inhibited”.
In the case of `[H]/N=C(/N)N[C@H]1[C@H](O)[C@@H](O)[C@H](O[C@@H]2O[C@@H](C)[C@](O)(C=O)[C@H]2O[C@@H]2O[C@@H](CO)[C@H](O)[C@@H](O)[C@@H]2NC)[C@@H](N/C(N)=N\[H])[C@@H]1O` [streptomycin], the “growth of strain C38291 inhibited or not” value in assay [1] was “inhibited”.
For the molecule `C=Cc1cc(OC)c2c(c1)c(=O)oc1c2cc(OC)c2c(O)ccc(C3OC(C)C(O)C(C)(O)C3O)c21` (stereo not drawn) [Albacarcin V, albacarcin V], the “Effect MST % T/C” value with P388 leukemia (8 mg/kg/inj) was found to be 113 % T/C; in the assay with P388 leukemia (16 mg/kg/inj), 131 % T/C; with P388 leukemia (32 mg/kg/inj), 150 % T/C; in the assay with P388 leukemia (64 mg/kg/inj), 194 % T/C; with P388 leukemia (128 mg/kg/inj), 200 % T/C; with P388 leukemia (256 mg/kg/inj), 100 % T/C. Further, the “MST (median survival time)” value with P388 leukemia (8 mg/kg/inj) was 9.0 days; in the assay on P388 leukemia (16 mg/kg/inj), 10.5 days; in the assay with P388 leukemia (32 mg/kg/inj), 12.0 days; in the assay on P388 leukemia (64 mg/kg/inj), 15.5 days; with P388 leukemia (128 mg/kg/inj), 16.0 days; with P388 leukemia (256 mg/kg/inj), 8.0 days. Moreover, the “potency relative to albacarcin M in P388 test” value with P388 leukemia (comparing optimum doses (maximum T/C) and minimum effective dose (lowest dose giving T/C>125)) was “twice as potent as albacarcin M”. The “host survival in the P388 leukemia screening test (in words)” value with P388 leukemia was “significantly prolong host survival”. The “Minimum Inhibitory Concentration” value with Enterobacter cloacae was over 50 µg/mL; in the assay on Proteus vulgaris it was 3.2 µg/mL; in the assay with Klebsiella pneumoniae, over 50 µg/mL; in the assay with Escherichia coli (Strain No. 15119) it was over 50 µg/mL; in the assay with Escherichia coli (Strain No. 20341-1), over 50 µg/mL; with Staphylococcus aureus (Strain No. 9497) it was 0.0125 µg/mL. Further, the “Minimum Inhibitory Concentration” value was 0.0125 µg/mL in the assay with Staphylococcus aureus (Strain No. 9537); 0.4 µg/mL in the assay with Staphylococcus aureus (Strain No. 9606); 0.1 µg/mL in the assay with Staphylococcus aureus (Strain No. 20688); over 50 µg/mL in the assay with Pseudomonas aeruginosa; over 50 µg/mL in the assay on Proteus mirabilis; over 50 µg/mL in the assay with Serratia marcescens. The “Minimum Inhibitory Concentration” value in the assay with Streptococcus pneumoniae came to 0.025 µg/mL; with Streptococcus pyogenes, 0.05 µg/mL. The “gram-negative activity (in words)” value in the assay on gram-negative bacteria is recorded as “Little or no gram-negative activity”. For the same molecule, the “antibacterial potency relative to albacarcin M” value in the assay with gram-positive bacteria is recorded as “more potent than albacarcin M”. For the same molecule, the “gram-positive antibacterial activity (in words)” value in the assay with gram-positive bacteria was “moderate gram-positive antibacterial activity”.

Source of the values: patent US4461831A, “Antitumor agents albacarcins V and M” (Bristol-Myers Company, priority 1982, dated 1984).
